Like-named read-outs stand apart in the source and are kept apart here. Values belong to the molecule of their own block, whether it stands above or below them.
Tests used:
[1] = test system: saphenous artery rings; assay: Vasorelaxant effect in vitro (phenylephrine-contracted saphenous artery rings); parameters: species or system Rabbits; settings: rabbit saphenous artery rings, read-out: IC50 (concentration reducing phenylephrine-induced contraction by 50%)
Method: B-3. Vasorelaxant Effect In Vitro
Rabbits are anaesthetized and sacrificed by intravenous injection of thiopental sodium (about 50 mg/kg) and exsanguinated. The saphenous artery is removed and divided into rings 3 mm wide. The rings are mounted singly on in each case a pair of triangular hooks open at the end and made of 0.3 mm-thick special wire (Remanium®). Each ring is placed under an initial tension in 5 ml organ baths with Krebs-Henseleit solution which is at 37° C., is gassed with carbogen and has the following composition: NaCl 119 mM; KCl 4.8 mM; CaCl2×2 H2O 1 mM; MgSO4×7H2O 1.4 mM; KH2PO4 1.2 mM; NaHCO3 25 mM; glucose 10 mM; bovine serum albumin 0.001%. The force of contraction is detected with Statham UC2 cells, amplified and digitized via A/D converters (DAS-1802 HC, Keithley Instruments, Munich) and recorded in parallel on chart recorders. Contractions are induced by addition of phenylephrine.
After several (generally 4) control cycles, the substance to be investigated is added in each further run in increasing dosage, and the level of the contraction achieved under the influence of the test substance is compared with the level of the contraction reached in the last preceding run. The concentration necessary to reduce the contraction reached in the preceding control by 50% is calculated from this (IC50). The standard application volume is 5 μl. The proportion of DMSO in the bath solution corresponds to 0.1%.

[2] = test system: recombinant guanylate cyclase reporter cell line; assay: sGC-activating activity in the CHO reporter cell in vitro; type: cell-based; settings: read-out: MEC (minimum effective concentration)
Method: B-2. Action at a Recombinant Guanylate Cyclase Reporter Cell Line
The cellular action of the compounds according to the invention is determined at a recombinant guanylate cyclase reporter cell line, as described in F. Wunder et al., Anal. Biochem. 32, 104-112 (2005).

[3] = molecular target: T1, haem-free recombinant soluble guanylate cyclase (sGC) (Rattus norvegicus, UniProt P20595); assay: Stimulation of recombinant soluble guanylate cyclase (sGC) in vitro, haem-free enzyme; type: biochemical
T1 construct: made in house; host or cells: Sf9 insect cells (baculovirus)
T1 sequence (P20595 1-619): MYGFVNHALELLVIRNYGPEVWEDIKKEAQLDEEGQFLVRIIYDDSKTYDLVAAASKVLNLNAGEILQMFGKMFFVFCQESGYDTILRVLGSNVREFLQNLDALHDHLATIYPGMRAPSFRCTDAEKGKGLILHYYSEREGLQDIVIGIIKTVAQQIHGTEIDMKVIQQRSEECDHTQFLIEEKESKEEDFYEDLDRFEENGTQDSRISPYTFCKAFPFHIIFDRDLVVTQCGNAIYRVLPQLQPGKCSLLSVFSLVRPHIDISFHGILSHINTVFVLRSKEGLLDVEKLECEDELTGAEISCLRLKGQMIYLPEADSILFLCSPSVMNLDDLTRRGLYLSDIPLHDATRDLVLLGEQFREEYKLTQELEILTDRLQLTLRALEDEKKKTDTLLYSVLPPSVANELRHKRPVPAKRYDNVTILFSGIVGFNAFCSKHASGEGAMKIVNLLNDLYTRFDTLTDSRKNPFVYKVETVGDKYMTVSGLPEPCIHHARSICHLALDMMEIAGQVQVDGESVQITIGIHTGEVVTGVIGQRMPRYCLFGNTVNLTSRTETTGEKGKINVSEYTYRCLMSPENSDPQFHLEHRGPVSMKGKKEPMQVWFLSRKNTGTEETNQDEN
T1 sequence (P19686 1-690 partner): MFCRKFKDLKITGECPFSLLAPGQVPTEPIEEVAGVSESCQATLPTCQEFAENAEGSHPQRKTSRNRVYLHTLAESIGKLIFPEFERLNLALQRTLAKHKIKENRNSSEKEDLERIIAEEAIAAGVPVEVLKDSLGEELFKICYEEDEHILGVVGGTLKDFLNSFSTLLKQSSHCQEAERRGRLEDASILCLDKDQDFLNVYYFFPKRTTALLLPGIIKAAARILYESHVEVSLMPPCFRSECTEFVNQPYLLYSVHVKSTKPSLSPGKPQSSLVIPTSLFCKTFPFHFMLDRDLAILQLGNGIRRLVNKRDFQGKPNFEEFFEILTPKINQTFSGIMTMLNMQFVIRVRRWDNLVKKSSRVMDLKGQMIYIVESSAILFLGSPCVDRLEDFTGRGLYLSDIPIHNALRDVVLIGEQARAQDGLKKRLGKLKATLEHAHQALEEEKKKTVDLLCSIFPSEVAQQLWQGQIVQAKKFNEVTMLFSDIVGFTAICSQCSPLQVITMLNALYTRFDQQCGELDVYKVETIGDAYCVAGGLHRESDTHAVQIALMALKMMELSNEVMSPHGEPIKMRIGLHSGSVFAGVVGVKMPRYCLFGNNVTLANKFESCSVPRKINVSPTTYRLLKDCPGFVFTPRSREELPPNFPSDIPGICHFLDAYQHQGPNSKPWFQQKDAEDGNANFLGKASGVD
Method: (§1) B-1. Stimulation of Recombinant Soluble Guanylate Cyclase (sGC) In Vitro
(§2) Investigations on the stimulation of recombinant soluble guanylate cyclase (sGC) by the compounds according to the invention with and without sodium nitroprusside, and with and without the haem-dependent sGC inhibitor 1H-1,2,4-oxadiazolo[4,3a]quinoxalin-1-one (ODQ), are carried out by the method described in detail in the following reference: M. Hoenicka, E. M. Becker, H. Apeler, T. Sirichoke, H. Schroeder, R. Gerzer and J.-P. Stasch, “Purified soluble guanylyl cyclase expressed in a baculovirus/Sf9 system: Stimulation by YC-1, nitric oxide, and carbon oxide”, J. Mol. Med 77 (1999), 14-23. The haem-free guanylate cyclase is obtained by adding Tween 20 to the sample buffer (0.5% in the final concentration).
The activation of sGC by a test substance is reported as x-fold stimulation of the basal activity. The result for Example 2 is shown in Table 1A, that for Example 23 in Table 1B and that for Example 39 in Table 1C: […]

[4] = molecular target: T2, haem-containing recombinant soluble guanylate cyclase (sGC) (Rattus norvegicus, UniProt P20595); assay: Stimulation of recombinant soluble guanylate cyclase (sGC) in vitro, haem-containing enzyme; type: biochemical
T2 construct: made in house; host or cells: Sf9 insect cells (baculovirus)
T2 sequence (P20595 1-619): T1 sequence (P20595 1-619)
T2 sequence (P19686 1-690 partner): T1 sequence (P19686 1-690 partner)
Method: as §1, §2
The activation of sGC by a test substance is reported as x-fold stimulation of the basal activity. The result for Example 2 is shown in Table 1A, that for Example 23 in Table 1B and that for Example 39 in Table 1C:
[DEA/NO=2-(N,N-diethylamino)diazenolate 2-oxide; ODQ=1H-1,2,4-oxadiazolo-[4,3a]quinoxalin-1-one].

IC50 [1]: 15.5 nM
Structure (SMILES): O=C(O)CCCCN(CCc1ccccc1OCc1ccc(CCc2ccc(F)cc2)cc1)C1CCCc2nc(C(=O)O)ccc21 (single isomer, unassigned) [Example 16]
minimal effective concentration [2]: 3 nM

IC50 ([1]; Oryctolagus cuniculus): 0.4 nM
Structure (SMILES): O=C(O)CCCCN(CCc1ccccc1OCc1ccc(-c2ccc(C(F)(F)F)cc2)cc1)C1CCCc2nc(C(=O)O)ccc21 (single isomer, unassigned) [Example 18]
minimal effective concentration [2]: 0.3 nM

Stimulation (x-fold), haem-free sGC, basal ([3]; test compound 0.01 μM): 52.5 ± 3.8 x-fold | Stimulation (x-fold), haem-free sGC, basal ([3]; test compound 0.1 μM): 184.3 ± 15.4 x-fold | Stimulation (x-fold), haem-free sGC, basal ([3]; test compound 1.0 μM): 284.7 ± 18.8 x-fold | Stimulation (x-fold), haem-free sGC, basal ([3]; test compound 10 μM): 310.4 ± 22.6 x-fold | Stimulation (x-fold), haem-free sGC, basal ([3]; test compound 100 μM): 342.0 ± 27.6 x-fold | Effect of combination with the NO donor DEA/NO on sGC stimulation [4]: no synergistic effect | Stimulation (x-fold), haem-containing sGC, basal ([4]; test compound 0.01 μM): 8.3 ± 1.1 x-fold | Stimulation (x-fold), haem-containing sGC, +0.1 μM DEA/NO ([4]; test compound 0.01 μM): 24.5 ± 4.4 x-fold | Stimulation (x-fold), haem-containing sGC, +10 μM ODQ ([4]; test compound 0.01 μM): 16.9 ± 3.3 x-fold | Stimulation (x-fold), haem-containing sGC, basal ([4]; test compound 0.1 μM): 54.2 ± 11.9 x-fold | Stimulation (x-fold), haem-containing sGC, +0.1 μM DEA/NO ([4]; test compound 0.1 μM): 77.1 ± 9.2 x-fold | Stimulation (x-fold), haem-containing sGC, +10 μM ODQ ([4]; test compound 0.1 μM): 105.4 ± 18.0 x-fold | Stimulation (x-fold), haem-containing sGC, basal ([4]; test compound 1.0 μM): 108.7 ± 16.3 x-fold | Stimulation (x-fold), haem-containing sGC, +0.1 μM DEA/NO ([4]; test compound 1.0 μM): 155.2 ± 20.7 x-fold | Stimulation (x-fold), haem-containing sGC, +10 μM ODQ ([4]; test compound 1.0 μM): 216.1 ± 28.9 x-fold | Stimulation (x-fold), haem-containing sGC, basal ([4]; test compound 10 μM): 135.7 ± 20.0 x-fold | Stimulation (x-fold), haem-containing sGC, +0.1 μM DEA/NO ([4]; test compound 10 μM): 180.4 ± 22.9 x-fold | Stimulation (x-fold), haem-containing sGC, +10 μM ODQ ([4]; test compound 10 μM): 227.0 ± 31.7 x-fold | Stimulation (x-fold), haem-containing sGC, basal ([4]; test compound 100 μM): 180.5 ± 21.2 x-fold | Stimulation (x-fold), haem-containing sGC, +0.1 μM DEA/NO ([4]; test compound 100 μM): 241.0 ± 34.4 x-fold | Stimulation (x-fold), haem-containing sGC, +10 μM ODQ ([4]; test compound 100 μM): 261.7 ± 32.1 x-fold
Structure (SMILES): O=C(O)c1ccc(CCN(CCc2ccccc2OCc2ccc(-c3ccc(C(F)(F)F)cc3)cc2Cl)C2CCCc3nc(C(=O)O)ccc32)cc1 (single isomer, unassigned; enantiomer 2) [Example 23, 5-{[2-(4-Carboxyphenyl)ethyl][2-(2-{[3-chloro-4′-(trifluoromethyl)biphenyl-4-yl]methoxy}-phenyl)ethyl]amino}-5,6,7,8-tetrahydroquinoline-2-carboxylic acid (Enantiomer 2)]
minimal effective concentration [2]: 0.7 nM

Stimulation (x-fold), haem-free sGC, basal ([3]; test compound 0.01 μM): 39.0 ± 5.8 x-fold | Stimulation (x-fold), haem-free sGC, basal ([3]; test compound 0.1 μM): 176.9 ± 29.9 x-fold | Stimulation (x-fold), haem-free sGC, basal ([3]; test compound 1.0 μM): 284.9 ± 54.5 x-fold | Stimulation (x-fold), haem-free sGC, basal ([3]; test compound 10 μM): 311.5 ± 55.9 x-fold | Stimulation (x-fold), haem-free sGC, basal ([3]; test compound 100 μM): 309.4 ± 54.8 x-fold | Effect of combination with the NO donor DEA/NO on sGC stimulation [4]: no synergistic effect | Stimulation (x-fold), haem-containing sGC, basal ([4]; test compound 0.01 μM): 17.4 ± 2.4 x-fold | Stimulation (x-fold), haem-containing sGC, +0.1 μM DEA/NO ([4]; test compound 0.01 μM): 46.5 ± 2.8 x-fold | Stimulation (x-fold), haem-containing sGC, +10 μM ODQ ([4]; test compound 0.01 μM): 42.0 ± 4.9 x-fold | Stimulation (x-fold), haem-containing sGC, basal ([4]; test compound 0.1 μM): 73.0 ± 7.7 x-fold | Stimulation (x-fold), haem-containing sGC, +0.1 μM DEA/NO ([4]; test compound 0.1 μM): 115.5 ± 11.9 x-fold | Stimulation (x-fold), haem-containing sGC, +10 μM ODQ ([4]; test compound 0.1 μM): 145.6 ± 14.7 x-fold | Stimulation (x-fold), haem-containing sGC, basal ([4]; test compound 1.0 μM): 96.6 ± 8.5 x-fold | Stimulation (x-fold), haem-containing sGC, +0.1 μM DEA/NO ([4]; test compound 1.0 μM): 145.2 ± 15.9 x-fold | Stimulation (x-fold), haem-containing sGC, +10 μM ODQ ([4]; test compound 1.0 μM): 182.5 ± 17.6 x-fold | Stimulation (x-fold), haem-containing sGC, basal ([4]; test compound 10 μM): 108.6 ± 9.0 x-fold | Stimulation (x-fold), haem-containing sGC, +0.1 μM DEA/NO ([4]; test compound 10 μM): 159.4 ± 17.9 x-fold | Stimulation (x-fold), haem-containing sGC, +10 μM ODQ ([4]; test compound 10 μM): 188.7 ± 16.5 x-fold | Stimulation (x-fold), haem-containing sGC, basal ([4]; test compound 100 μM): 143.6 ± 13.4 x-fold | Stimulation (x-fold), haem-containing sGC, +0.1 μM DEA/NO ([4]; test compound 100 μM): 192.1 ± 24.6 x-fold | Stimulation (x-fold), haem-containing sGC, +10 μM ODQ ([4]; test compound 100 μM): 208.5 ± 19.0 x-fold
Structure (SMILES): O=C(O)c1ccc(CCN(CCc2cc(F)ccc2OCc2ccc(-c3nc4cc(Cl)ccc4o3)cc2)C2CCCc3nc(C(=O)O)ccc32)cc1 (single isomer, unassigned; enantiomer 2) [Example 39, 5-{[2-(4-Carboxyphenyl)ethyl][2-(2-{[4-(5-chloro-1,3-benzoxazol-2-yl)benzyl]oxy}-5-fluorophenyl)ethyl]amino}-5,6,7,8-tetrahydroquinoline-2-carboxylic acid (Enantiomer 2)]
minimal effective concentration [2]: 1 nM

The next lines start with the molecule.

Structure (SMILES): CC(C)(C)c1ccc(COc2ccccc2CCN(CCCCC(=O)O)C2CCCc3nc(C(=O)O)ccc32)cc1 (single isomer, unassigned) [Example 4]
IC50 ([1]; Oryctolagus cuniculus): 0.3 nM | minimal effective concentration [2]: 0.5 nM

Structure (SMILES): O=C(O)CCCCN(CCc1ccccc1OCc1ccc(CCc2ccccc2)cc1)C1CCCc2nc(C(=O)O)ccc21 (single isomer, unassigned) [Example 14]
IC50 [1]: 41.8 nM | minimal effective concentration [2]: 30 nM

Structure (SMILES): O=C(O)CCCCN(CCc1ccccc1OCc1ccc(CCc2ccc(F)cc2)cc1)C1CCCc2nc(C(=O)O)ccc21 (single isomer, unassigned) [Example 15]
IC50 [1]: 0.2 nM | minimal effective concentration [2]: 0.3 nM

Structure (SMILES): Cc1ccc2oc(-c3ccc(COc4ccccc4CCN(CCCCC(=O)O)C4CCCc5nc(C(=O)O)ccc54)cc3)nc2c1 (single isomer, unassigned; enantiomer 1) [Example 1, (−)-5-{(4-Carboxybutyl)[2-(2-{[4-(5-methyl-1,3-benzoxazol-2-yl)benzyl]oxy}phenyl)ethyl]-amino}-5,6,7,8-tetrahydroquinoline-2-carboxylic acid (Enantiomer 1)]
IC50 [1]: 571 nM | minimal effective concentration [2]: 160 nM

From patent US10053428B2, “5-aminotetrahydroquinoline-2-carboxylic acids and their use” (BAYER PHARMA AKTIENGESELLSCHAFT, priority 2012, dated 2018)
